In patent US12415834B2, “GhR-binding peptide and composition comprising same” (priority 2021, dated 2025):
Where two headings read alike, the source gives them in different places. Starred links: 1 amine or outer side, 2 acyl side, 3 side chain; linkers in the order of their positions; H or OH if unused. Positions of bridges follow the written chain, without caps; N, C: chain ends. Non-standard residues stand in square brackets, D forms with d. Residues, ends and D or L forms follow the SMILES beside them. Groups on a side chain read outwards from the residue. *: point of attachment. X10 = NC(=O)[C@H](CCCCN*)NC(=O)CC[C@H](NC(=O)CC[C@H](NC(=O)CCCc1ccc(I)cc1)C(=O)O)C(=O)O; Trp(1-CH2CO) = O=C([C@H](Cc1cn(CC(=O)[*:3])c2ccccc12)N[*:1])[*:2]; Trp(5-OMe) = COc1ccc2[nH]cc(C[C@H](N)C(=O)O)c2c1; Butanoyl(4-(4-I-phenyl)) = O=C(CCCc1ccc(I)cc1)*; Trp(5-OH) = N[C@@H](Cc1c[nH]c2ccc(O)cc12)C(=O)O; Phe(4-COOH) = N[C@@H](Cc1ccc(C(=O)O)cc1)C(=O)O; Piperazinyl(4-CH2COOH) = O=C(O)CN1CCN(*)CC1; X7 = O=C(O)CN1CCC(N[*:1])(C(=O)[*:2])CC1; C16 diacid = O=C(O)CCCCCCCCCCCCCCC(=O)*; γGlu = O=C(O)[C@H](CCC(=O)[*:2])N[*:1]; Hexanoyl(6-Ph) = O=C(CCCCCc1ccccc1)*; X9 = O=C(CCCc1ccc(-c2ccccc2)cc1)*; 4Pal = N[C@@H](Cc1ccncc1)C(=O)O; NMeK = CN[C@@H](CCCCN)C(=O)O; Aib = CC(C)(N)C(=O)O; CO = O=C([*:1])[*:2]

Biological target: T1, Recombinant human GhR-Fc protein (Homo sapiens, UniProt P10912)
T1 construct: purchased R&D Systems
T1 sequence (P10912 with tags, fused parts or gaps limits assumed): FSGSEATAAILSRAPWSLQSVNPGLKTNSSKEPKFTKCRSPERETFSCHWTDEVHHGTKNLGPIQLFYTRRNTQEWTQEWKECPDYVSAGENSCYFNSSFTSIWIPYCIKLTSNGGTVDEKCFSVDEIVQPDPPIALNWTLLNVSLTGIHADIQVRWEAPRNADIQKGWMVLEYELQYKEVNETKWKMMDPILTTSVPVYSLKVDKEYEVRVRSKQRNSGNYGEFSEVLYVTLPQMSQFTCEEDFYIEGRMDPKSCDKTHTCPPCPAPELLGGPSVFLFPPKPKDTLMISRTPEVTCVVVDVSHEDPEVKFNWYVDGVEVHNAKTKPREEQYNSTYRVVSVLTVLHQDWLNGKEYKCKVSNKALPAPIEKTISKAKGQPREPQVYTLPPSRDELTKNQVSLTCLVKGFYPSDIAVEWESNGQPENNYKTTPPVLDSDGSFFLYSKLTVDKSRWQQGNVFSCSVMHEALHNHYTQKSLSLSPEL
Assay: SPR binding assay (Biacore T200, single-cycle kinetics) of peptides against immobilized human GhR-Fc
Procedure: SPR assay was performed using Biacore T200 (cytiva: Former GE Healthcare). After the equilibration of Series S Sensor Chip CM5 (produced by cytiva: Former GE Healthcare) with Running Buffer (HBS-EP with 1% (v/v) DMSO), an EDC/NHS mixture was injected at a flow rate of 10 μL/min for 7 minutes to thereby activate the functional groups on sensor chip. Recombinant human GhR-Fc protein (R&D Systems) in 10 mM Acetate (pH 4.0) was injected immobilized to at a flow rate of 5 μL/min. It took 7 minutes to immobilize the GhR on the substrate surfaces of the sensor chip. Then Ethanolamine was injected at a flow rate of 10 μL/min for 7 minutes. 1M Ethanolamine (aq.) was injected at a flow rate of 10 μL/min for 420 seconds for capping.
Using these Peptide Samples, kinetics of peptides against human GhR-Fc protein were measured. The method adopted for sample measurement was a single-cycle kinetics method. The analysis was conducted using the evaluation software provided with Biacore T200. A DMSO correction curve obtained by solvent correction measurements was applied for the analysis. Kinetics fitting was done on the difference data obtained by subtracting the baseline data from sample measurement data. KD values were calculated based on the association rate constant (ka) and dissociation rate constant (kd). […]

[1] = SPR, hGhR, Table 1 bicyclic peptides, KD calculated from ka and kd, read-out: KD
[2] = SPR, hGhR, Table 2 monocyclic peptides, KD calculated from ka and kd, read-out: KD

Compound | Kd [2] [nM] | other results
CC(C)[C@@H]1NC(=O)[C@H](C(C)C)NC(=O)[C@@H]2CCCCNC(=O)Cn3cc(c4ccccc43)C[C@H](NC(=O)[C@H](CC(N)=O)NC(=O)[C@H](CO)NC1=O)C(=O)N[C@@H](Cc1ccc(O)cc1)C(=O)N[C@@H](CCCCN)C(=O)N[C@@H](Cc1c[nH]c3ccc(O)cc13)C(=O)NC1(CCN(CC(=O)O)CC1)C(=O)N[C@@H](C(C)C)C(=O)N[C@H](C(=O)NCC(=O)N1CCC[C@H]1C(=O)N[C@H](CO)C(=O)N[C@H](CO)C(=O)N[C@H](CO)C(=O)N[C@@H](CCCCNC(=O)CC[C@H](NC(=O)CC[C@H](NC(=O)CCCCCCCCCCCCCCC(=O)O)C(=O)O)C(=O)O)C(N)=O)CSCC(=O)N[C@@H](Cc1ccc(O)cc1)C(=O)N2C [Compound 30] ({CH2CO}-Y[NMeK]VVSN[Trp(1-CH2CO)]YK[Trp(5-OH)][X7]VCGP[dS][dS][dS]K([γGlu-γGlu-C16 diacid])-NH2; lactam 2-7; thioether N-13) |  | Kd [1]: 2.26 nM
CC(C)[C@@H]1NC(=O)[C@H](C(C)C)NC(=O)[C@@H]2CCCCNC(=O)Cn3cc(c4ccccc43)C[C@H](NC(=O)[C@H](CC(N)=O)NC(=O)[C@H](CO)NC1=O)C(=O)N[C@@H](Cc1ccc(O)cc1)C(=O)N[C@@H](CCCCN)C(=O)N[C@@H](Cc1c[nH]c3ccc(O)cc13)C(=O)NC(C)(C)C(=O)N[C@@H](C(C)C)C(=O)N[C@H](C(=O)NCC(=O)N1CCC[C@H]1C(=O)N[C@H](CO)C(=O)N[C@H](CO)C(=O)N[C@H](CO)C(=O)N[C@@H](CCCCNC(=O)CC[C@H](NC(=O)CC[C@H](NC(=O)CCCCCCCCCCCCCCC(=O)O)C(=O)O)C(=O)O)C(N)=O)CSCC(=O)N[C@@H](Cc1ccc(O)cc1)C(=O)N2C [Compound 31] ({CH2CO}-Y[NMeK]VVSN[Trp(1-CH2CO)]YK[Trp(5-OH)][Aib]VCGP[dS][dS][dS]K([γGlu-γGlu-C16 diacid])-NH2; lactam 2-7; thioether N-13) |  | Kd [1]: 0.92 nM
CC(C)[C@@H]1NC(=O)[C@H](C(C)C)NC(=O)[C@@H]2CCCCNC(=O)Cn3cc(c4ccccc43)C[C@H](NC(=O)[C@H](CC(N)=O)NC(=O)[C@H](CO)NC1=O)C(=O)N[C@@H](Cc1ccc(O)cc1)C(=O)N[C@@H](CCCCN)C(=O)N[C@@H](Cc1c[nH]c3ccc(O)cc13)C(=O)NC(C)(C)C(=O)N[C@@H](C(C)C)C(=O)N[C@H](C(=O)NCCCC[C@H](NC(=O)CC[C@H](NC(=O)CC[C@H](NC(=O)CCCc1ccc(I)cc1)C(=O)O)C(=O)O)C(N)=O)CSCC(=O)N[C@@H](Cc1ccc(O)cc1)C(=O)N2C [Compound 32] ({CH2CO}-Y[NMeK]VVSN[Trp(1-CH2CO)]YK[Trp(5-OH)][Aib]VC-X10; lactam 2-7; thioether N-13) |  | Kd [1]: 0.98 nM
COc1ccc2[nH]cc(C[C@@H]3NC(=O)[C@H](CC(N)=O)NC(=O)[C@H](CO)NC(=O)[C@H](C(C)C)NC(=O)[C@H](C(C)C)NC(=O)[C@H](CCCCNC(=O)CC[C@H](NC(=O)CCCc4ccc(I)cc4)C(=O)O)N(C)C(=O)[C@H](Cc4ccncc4)NC(=O)CSC[C@@H](C(N)=O)NC(=O)[C@H](C(C)C)NC(=O)C(C)(C)NC(=O)[C@H](Cc4c[nH]c5ccc(O)cc45)NC(=O)[C@H](CCCCN)NC(=O)[C@H](Cc4ccc(C(=O)O)cc4)NC3=O)c2c1 [Compound 34] ({CH2CO}-[4Pal][NMeK]([γGlu-Butanoyl(4-(4-I-phenyl))])VVSN[Trp(5-OMe)][Phe(4-COOH)]K[Trp(5-OH)][Aib]VC-NH2; thioether N-13) | 2.77 | 
COc1ccc2[nH]cc(C[C@@H]3NC(=O)[C@H](CC(N)=O)NC(=O)[C@H](CO)NC(=O)[C@H](C(C)C)NC(=O)[C@H](C(C)C)NC(=O)[C@H](CCCCNC(=O)CC[C@H](NC(=O)CCCc4ccc(I)cc4)C(=O)O)N(C)C(=O)[C@H](Cc4ccc(C(=O)O)cc4)NC(=O)CSC[C@@H](C(N)=O)NC(=O)[C@H](C(C)C)NC(=O)C(C)(C)NC(=O)[C@H](Cc4c[nH]c5ccc(O)cc45)NC(=O)[C@H](CCCCNC(=O)N4CCN(CC(=O)O)CC4)NC(=O)[C@H](Cc4ccc(C(=O)O)cc4)NC3=O)c2c1 [Compound 35] ({CH2CO}-[Phe(4-COOH)][NMeK]([γGlu-Butanoyl(4-(4-I-phenyl))])VVSN[Trp(5-OMe)][Phe(4-COOH)]K([CO-Piperazinyl(4-CH2COOH)])[Trp(5-OH)][Aib]VC-NH2; thioether N-13) | 5.47 | 
COc1ccc2[nH]cc(C[C@@H]3NC(=O)[C@H](CC(N)=O)NC(=O)[C@H](CO)NC(=O)[C@H](C(C)C)NC(=O)[C@H](C(C)C)NC(=O)[C@H](CCCCNC(=O)CC[C@H](NC(=O)CCCc4ccc(I)cc4)C(=O)O)N(C)C(=O)[C@H](Cc4ccc(C(=O)O)cc4)NC(=O)CSC[C@@H](C(N)=O)NC(=O)[C@H](C(C)C)NC(=O)C4(CCN(CC(=O)O)CC4)NC(=O)[C@H](Cc4c[nH]c5ccc(O)cc45)NC(=O)[C@H](CCCCN)NC(=O)[C@H](Cc4ccc(C(=O)O)cc4)NC3=O)c2c1 [Compound 36] ({CH2CO}-[Phe(4-COOH)][NMeK]([γGlu-Butanoyl(4-(4-I-phenyl))])VVSN[Trp(5-OMe)][Phe(4-COOH)]K[Trp(5-OH)][X7]VC-NH2; thioether N-13) | 10.8 | 
COc1ccc2[nH]cc(C[C@@H]3NC(=O)[C@H](CC(N)=O)NC(=O)[C@H](CO)NC(=O)[C@H](C(C)C)NC(=O)[C@H](C(C)C)NC(=O)[C@H](CCCCNC(=O)CC[C@H](NC(=O)CCCc4ccc(-c5ccccc5)cc4)C(=O)O)N(C)C(=O)[C@H](Cc4ccc(C(=O)O)cc4)NC(=O)CSC[C@@H](C(N)=O)NC(=O)[C@H](C(C)C)NC(=O)C4(CCN(CC(=O)O)CC4)NC(=O)[C@H](Cc4c[nH]c5ccc(O)cc45)NC(=O)[C@H](CCCCN)NC(=O)[C@H](Cc4ccc(C(=O)O)cc4)NC3=O)c2c1 [Compound 37] ({CH2CO}-[Phe(4-COOH)][NMeK]([γGlu-X9])VVSN[Trp(5-OMe)][Phe(4-COOH)]K[Trp(5-OH)][X7]VC-NH2; thioether N-13) |  | Kd: 5.81 nM
COc1ccc2[nH]cc(C[C@@H]3NC(=O)[C@H](CC(N)=O)NC(=O)[C@H](CO)NC(=O)[C@H](C(C)C)NC(=O)[C@H](C(C)C)NC(=O)[C@H](CCCCNC(=O)CC[C@H](NC(=O)CCCCCc4ccccc4)C(=O)O)N(C)C(=O)[C@H](Cc4ccc(C(=O)O)cc4)NC(=O)CSC[C@@H](C(N)=O)NC(=O)[C@H](C(C)C)NC(=O)C4(CCN(CC(=O)O)CC4)NC(=O)[C@H](Cc4c[nH]c5ccc(O)cc45)NC(=O)[C@H](CCCCN)NC(=O)[C@H](Cc4ccc(C(=O)O)cc4)NC3=O)c2c1 [Compound 38] ({CH2CO}-[Phe(4-COOH)][NMeK]([γGlu-Hexanoyl(6-Ph)])VVSN[Trp(5-OMe)][Phe(4-COOH)]K[Trp(5-OH)][X7]VC-NH2; thioether N-13) | 2.82 | 
COc1ccc2[nH]cc(C[C@@H]3NC(=O)[C@H](CC(N)=O)NC(=O)[C@H](CO)NC(=O)[C@H](C(C)C)NC(=O)[C@H](C(C)C)NC(=O)[C@H](CCCCNC(=O)CC[C@H](NC(=O)CCCc4ccc(I)cc4)C(=O)O)N(C)C(=O)[C@H](Cc4ccc(C(=O)O)cc4)NC(=O)CSC[C@@H](C(N)=O)NC(=O)[C@H](C(C)C)NC(=O)C(C)(C)NC(=O)[C@H](Cc4c[nH]c5ccc(O)cc45)NC(=O)[C@H](CCCCN)NC(=O)[C@H](Cc4ccc(C(=O)O)cc4)NC3=O)c2c1 [Compound 39] ({CH2CO}-[Phe(4-COOH)][NMeK]([γGlu-Butanoyl(4-(4-I-phenyl))])VVSN[Trp(5-OMe)][Phe(4-COOH)]K[Trp(5-OH)][Aib]VC-NH2; thioether N-13) | 2.19 | 
COc1ccc2[nH]cc(C[C@@H]3NC(=O)[C@H](CC(N)=O)NC(=O)[C@H](CO)NC(=O)[C@H](C(C)C)NC(=O)[C@H](C(C)C)NC(=O)[C@H](CCCCNC(=O)CC[C@H](NC(=O)CC[C@H](NC(=O)CCCc4ccc(I)cc4)C(=O)O)C(=O)O)N(C)C(=O)[C@H](Cc4ccc(C(=O)O)cc4)NC(=O)CSC[C@@H](C(N)=O)NC(=O)[C@H](C(C)C)NC(=O)C(C)(C)NC(=O)[C@H](Cc4c[nH]c5ccc(O)cc45)NC(=O)[C@H](CCCCN)NC(=O)[C@H](Cc4ccc(C(=O)O)cc4)NC3=O)c2c1 [Compound 40] ({CH2CO}-[Phe(4-COOH)][NMeK]([γGlu-γGlu-Butanoyl(4-(4-I-phenyl))])VVSN[Trp(5-OMe)][Phe(4-COOH)]K[Trp(5-OH)][Aib]VC-NH2; thioether N-13) | 2.96 | 
COc1ccc2[nH]cc(C[C@@H]3NC(=O)[C@H](CC(N)=O)NC(=O)[C@H](CO)NC(=O)[C@H](C(C)C)NC(=O)[C@H](C(C)C)NC(=O)[C@H](CCCCNC(=O)CC[C@H](NC(=O)CCCc4ccc(I)cc4)C(=O)O)N(C)C(=O)[C@H](Cc4ccc(C(=O)O)cc4)NC(=O)CSC[C@@H](C(=O)NCC(=O)N4CCC[C@H]4C(=O)N[C@H](CO)C(=O)N[C@H](CO)C(=O)N[C@H](CO)C(N)=O)NC(=O)[C@H](C(C)C)NC(=O)C(C)(C)NC(=O)[C@H](Cc4c[nH]c5ccc(O)cc45)NC(=O)[C@H](CCCCN)NC(=O)[C@H](Cc4ccc(C(=O)O)cc4)NC3=O)c2c1 [Compound 41] ({CH2CO}-[Phe(4-COOH)][NMeK]([γGlu-Butanoyl(4-(4-I-phenyl))])VVSN[Trp(5-OMe)][Phe(4-COOH)]K[Trp(5-OH)][Aib]VCGP[dS][dS][dS]-NH2; thioether N-13) | 2.63 | 
